Some test systems named below: UO-31 renal; SK-MEL-2 melanoma; PC-3 prostate; A549 NSCLC; CAKI-1 renal; NCI/ADR-RES ovarian; HCT-116 colon; HS 578T breast; MOLT-4 leukemia; CCRF-CEM leukemia.
Holding throughout (experiment): DTP human tumour cell line panel, 48 h

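In this assay, cells in 96-well plates receive the compound at five concentrations for 48 hours. Endpoints are linearly interpolated between the surrounding concentrations. GI50 = concentration required for 50% inhibition of growth. The concentration for full growth arrest is given as TGI.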

This is an account of results in PubChem BioAssay (NCI).

One may read the GI50 as the concentration at which growth is held to half of that of the control. The term TGI denotes the concentration giving total growth inhibition. Read a low TGI as greater sensitivity of the cells.

`CNCc1ccc(-c2[nH]c3cc(F)cc4c3c2CCNC4=O)cc1`: the GI50 was 22200 nM in the experiment with UO-31 renal; 20900 nM in the experiment on SK-MEL-2 melanoma; 23600 nM in the experiment on PC-3 prostate; 19.4 µM with A549 NSCLC; 16700 nM with CAKI-1 renal; 69.2 µM in the experiment with NCI/ADR-RES ovarian. Moreover, the GI50 is 13100 nM with HCT-116 colon, 19.5 µM with HS 578T breast, 21900 nM in the experiment on MOLT-4 leukemia and 25600 nM in the experiment with CCRF-CEM leukemia. Moreover, the TGI with UO-31 renal was 76.2 µM; in the experiment with SK-MEL-2 melanoma it was 39.3 µM; in the experiment with PC-3 prostate it was more than 100 µM; with A549 NSCLC, more than 71.2 µM; with CAKI-1 renal, 60 µM; with NCI/ADR-RES ovarian, more than 100 µM. Moreover, the total growth inhibition concentration (TGI) was 38.6 µM in the experiment with HCT-116 colon, 67.9 µM with HS 578T breast, 68 µM in the experiment with MOLT-4 leukemia and more than 93 µM with CCRF-CEM leukemia.
Regarding `C#CC#CC#CC#CC#CC#CC#CC#CC[C@@H]1OC[C@@H](COC(=O)O[C@@H](C(=O)O[C@H]2C[C@@]3(O)[C@@H](OC(=O)c4ccccc4)[C@@H]4[C@]5(OC(C)=O)CO[C@@H]5C[C@H](O)[C@@]4(C)C(=O)[C@H](OC(C)=O)C(=C2C)C3(C)C)[C@@H](NC(=O)c2ccccc2)c2ccccc2)O1`, the GI50 is 3390 nM in the experiment on UO-31 renal; 1280 nM with SK-MEL-2 melanoma; 345 nM in the experiment with PC-3 prostate; 0.285 µM in the experiment with A549 NSCLC; 477 nM with CAKI-1 renal; more than 33.3 µM in the experiment on NCI/ADR-RES ovarian. For the same compound, the GI50 with HCT-116 colon was 91.9 nM; in the experiment with HS 578T breast, 0.239 µM; with MOLT-4 leukemia, 362 nM; in the experiment on CCRF-CEM leukemia it was 354 nM. Also, the total growth inhibition concentration (TGI) in the experiment on UO-31 renal, in the experiment with SK-MEL-2 melanoma, in the experiment with PC-3 prostate, in the experiment on A549 NSCLC, in the experiment on CAKI-1 renal and in the experiment with NCI/ADR-RES ovarian was more than 33.3 µM throughout. The TGI in the experiment on HCT-116 colon was more than 33.3 µM; in the experiment on HS 578T breast, more than 8.14 µM; in the experiment on MOLT-4 leukemia it was more than 33.3 µM; in the experiment on CCRF-CEM leukemia, more than 33.3 µM.
On to `Nc1ncc(C2[C@H](CNC(=O)c3cc(Br)c[nH]3)C(CNC(=O)c3cc(Br)c[nH]3)[C@@H]2c2cnc(N)[nH]2)[nH]1` (stereo not given in full), for which the GI50 was more than 50000 nM in the experiment with UO-31 renal; more than 50000 nM in the experiment with SK-MEL-2 melanoma; more than 50000 nM in the experiment on PC-3 prostate; more than 50 µM in the experiment on A549 NSCLC; more than 50000 nM in the experiment with CAKI-1 renal; more than 50 µM in the experiment with NCI/ADR-RES ovarian. Further, the GI50 in the experiment on HCT-116 colon was more than 50000 nM; in the experiment with HS 578T breast, 40.1 µM; with MOLT-4 leukemia it was 48400 nM; with CCRF-CEM leukemia, more than 50000 nM. The total growth inhibition concentration (TGI) in the experiment with UO-31 renal, with SK-MEL-2 melanoma, with PC-3 prostate, with A549 NSCLC, in the experiment on CAKI-1 renal and with NCI/ADR-RES ovarian was more than 50 µM throughout. For the same compound, the TGI with HCT-116 colon, in the experiment with HS 578T breast, with MOLT-4 leukemia and with CCRF-CEM leukemia was more than 50 µM throughout.
In the case of `O=C(O)Cn1ccc(=O)c2cc([N+](=O)[O-])ccc21`, the TGI with UO-31 renal, with SK-MEL-2 melanoma, with PC-3 prostate, in the experiment on A549 NSCLC, with CAKI-1 renal and with NCI/ADR-RES ovarian was more than 100 µM in each case. The total growth inhibition concentration (TGI) in the experiment with HCT-116 colon, in the experiment on HS 578T breast, in the experiment with MOLT-4 leukemia and in the experiment on CCRF-CEM leukemia was more than 100 µM in each case.
Turning to `CCOc1ccc(Nc2nc(-c3c(C)nc4ncccn34)cs2)cc1`, the GI50 is 53.7 nM in the experiment on UO-31 renal; 38.9 nM with SK-MEL-2 melanoma; 18.5 nM in the experiment on PC-3 prostate; 0.0268 µM with A549 NSCLC; 14.4 nM in the experiment with CAKI-1 renal; less than 0.01 µM with NCI/ADR-RES ovarian. The GI50 in the experiment with HCT-116 colon was 22.1 nM; with HS 578T breast, 0.0357 µM; with MOLT-4 leukemia, 53.9 nM; in the experiment on CCRF-CEM leukemia, 29.1 nM. For the same compound, the TGI in the experiment on UO-31 renal was determined as 18.6 µM; with SK-MEL-2 melanoma it was 21.7 µM; in the experiment on PC-3 prostate it was 17.5 µM; with A549 NSCLC, 20.5 µM; in the experiment with CAKI-1 renal it was 15.8 µM; in the experiment on NCI/ADR-RES ovarian, 29.1 µM. Besides, the TGI was 11.6 µM in the experiment on HCT-116 colon, 23.3 µM in the experiment with HS 578T breast, 20.4 µM in the experiment with MOLT-4 leukemia and 17.3 µM in the experiment with CCRF-CEM leukemia.
Consider `Cc1ccc(S(=O)(=O)N2CCC(C(=O)O)(c3ccccc3)CC2)cc1`, for which the TGI in the experiment with UO-31 renal, in the experiment on SK-MEL-2 melanoma, with PC-3 prostate, in the experiment with A549 NSCLC, in the experiment on CAKI-1 renal and in the experiment with NCI/ADR-RES ovarian was more than 100 µM in each case. Moreover, the total growth inhibition concentration (TGI) in the experiment on HCT-116 colon, with HS 578T breast, with MOLT-4 leukemia and with CCRF-CEM leukemia was more than 100 µM in each case.
On to `C=C(Cn1c2ccccc2c(=O)c2ccccc21)c1ccc(C(=O)Nc2ccccc2N)cc1`, for which the GI50 in the experiment on UO-31 renal was 2640 nM; in the experiment on SK-MEL-2 melanoma it was more than 100000 nM; in the experiment with PC-3 prostate, 761 nM; in the experiment with A549 NSCLC, 28.5 µM; with CAKI-1 renal, more than 26000 nM; with NCI/ADR-RES ovarian it was 2.31 µM. Further, the GI50 in the experiment with HCT-116 colon was 4500 nM; with HS 578T breast it was more than 100 µM; with MOLT-4 leukemia, 767 nM; in the experiment on CCRF-CEM leukemia, 224 nM. In addition, the concentration for total growth inhibition (TGI) in the experiment with UO-31 renal, with SK-MEL-2 melanoma, in the experiment on PC-3 prostate, in the experiment with A549 NSCLC, with CAKI-1 renal and in the experiment on NCI/ADR-RES ovarian was more than 100 µM each time. Besides, the total growth inhibition concentration (TGI) is more than 100 µM in the experiment on HCT-116 colon, more than 100 µM in the experiment with HS 578T breast, more than 26 µM with MOLT-4 leukemia and 19.2 µM with CCRF-CEM leukemia.
Take `CCN1CCN(c2nc(NNC(=O)c3ccccc3)nc(N3CCN(C(c4ccccc4)c4ccccc4)CC3)n2)CC1`: the GI50 with UO-31 renal was 1520 nM; with SK-MEL-2 melanoma, 2400 nM; in the experiment on PC-3 prostate, 1900 nM; in the experiment with A549 NSCLC, 3.7 µM; with CAKI-1 renal it was 2210 nM; with NCI/ADR-RES ovarian, 3.32 µM. Moreover, the GI50 with HCT-116 colon was 1780 nM; with HS 578T breast, 3.3 µM; in the experiment with MOLT-4 leukemia, 2010 nM; in the experiment on CCRF-CEM leukemia, 2050 nM. The TGI turned out to be 3.25 µM in the experiment on UO-31 renal; 5.67 µM in the experiment on SK-MEL-2 melanoma; 7.57 µM with PC-3 prostate; 20.2 µM in the experiment with A549 NSCLC; 5.76 µM in the experiment on CAKI-1 renal; 14.3 µM in the experiment on NCI/ADR-RES ovarian. For the same compound, the TGI was 3.41 µM in the experiment on HCT-116 colon, 22.3 µM with HS 578T breast, 5.42 µM in the experiment on MOLT-4 leukemia and 6.36 µM in the experiment on CCRF-CEM leukemia.
